The results in this text go back to patent US10112926B2 (priority 2014, dated 2018).

As a reminder, the IC50 is the midpoint of a concentration-inhibition curve.

Counter-ions that a name gives are not always drawn. Some results are limits rather than exact numbers.

For one assay, the target named is Vps34 (Homo sapiens (Human), UniProt Q8NEB9). The conditions noted are these: read-out: Assay C VPS34 IC50.
Another assay addresses PI 4-kinase beta (Homo sapiens (Human), UniProt Q9UBF8). The conditions noted are these: read-out: Assay D PI4Kβ IC50.
The target of the next assay is mTOR (Homo sapiens (Human), UniProt P42345). The settings on record: read-out: Assay G mTOR IC50.

PI 4-kinase beta, sequence (Q9UBF8 whole entry): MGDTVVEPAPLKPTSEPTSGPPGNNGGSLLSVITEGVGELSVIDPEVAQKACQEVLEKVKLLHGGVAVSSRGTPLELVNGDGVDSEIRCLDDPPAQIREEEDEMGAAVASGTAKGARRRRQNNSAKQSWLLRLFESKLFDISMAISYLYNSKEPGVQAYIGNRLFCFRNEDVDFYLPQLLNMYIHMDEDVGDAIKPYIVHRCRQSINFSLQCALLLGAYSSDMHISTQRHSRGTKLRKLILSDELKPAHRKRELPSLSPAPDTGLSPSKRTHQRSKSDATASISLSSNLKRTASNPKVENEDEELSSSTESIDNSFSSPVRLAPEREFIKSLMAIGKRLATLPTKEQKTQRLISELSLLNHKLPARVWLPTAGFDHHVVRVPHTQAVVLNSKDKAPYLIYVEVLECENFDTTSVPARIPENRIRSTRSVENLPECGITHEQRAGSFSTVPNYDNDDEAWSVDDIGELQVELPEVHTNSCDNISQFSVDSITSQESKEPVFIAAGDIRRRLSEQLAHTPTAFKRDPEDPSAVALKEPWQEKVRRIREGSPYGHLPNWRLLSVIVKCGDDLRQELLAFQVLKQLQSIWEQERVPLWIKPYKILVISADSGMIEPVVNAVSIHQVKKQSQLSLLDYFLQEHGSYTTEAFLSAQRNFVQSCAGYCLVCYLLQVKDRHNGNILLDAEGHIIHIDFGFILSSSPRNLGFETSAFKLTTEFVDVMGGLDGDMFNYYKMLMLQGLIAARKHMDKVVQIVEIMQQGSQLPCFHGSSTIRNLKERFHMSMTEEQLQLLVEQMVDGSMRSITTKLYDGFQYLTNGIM
Vps34, sequence (Q8NEB9 whole entry): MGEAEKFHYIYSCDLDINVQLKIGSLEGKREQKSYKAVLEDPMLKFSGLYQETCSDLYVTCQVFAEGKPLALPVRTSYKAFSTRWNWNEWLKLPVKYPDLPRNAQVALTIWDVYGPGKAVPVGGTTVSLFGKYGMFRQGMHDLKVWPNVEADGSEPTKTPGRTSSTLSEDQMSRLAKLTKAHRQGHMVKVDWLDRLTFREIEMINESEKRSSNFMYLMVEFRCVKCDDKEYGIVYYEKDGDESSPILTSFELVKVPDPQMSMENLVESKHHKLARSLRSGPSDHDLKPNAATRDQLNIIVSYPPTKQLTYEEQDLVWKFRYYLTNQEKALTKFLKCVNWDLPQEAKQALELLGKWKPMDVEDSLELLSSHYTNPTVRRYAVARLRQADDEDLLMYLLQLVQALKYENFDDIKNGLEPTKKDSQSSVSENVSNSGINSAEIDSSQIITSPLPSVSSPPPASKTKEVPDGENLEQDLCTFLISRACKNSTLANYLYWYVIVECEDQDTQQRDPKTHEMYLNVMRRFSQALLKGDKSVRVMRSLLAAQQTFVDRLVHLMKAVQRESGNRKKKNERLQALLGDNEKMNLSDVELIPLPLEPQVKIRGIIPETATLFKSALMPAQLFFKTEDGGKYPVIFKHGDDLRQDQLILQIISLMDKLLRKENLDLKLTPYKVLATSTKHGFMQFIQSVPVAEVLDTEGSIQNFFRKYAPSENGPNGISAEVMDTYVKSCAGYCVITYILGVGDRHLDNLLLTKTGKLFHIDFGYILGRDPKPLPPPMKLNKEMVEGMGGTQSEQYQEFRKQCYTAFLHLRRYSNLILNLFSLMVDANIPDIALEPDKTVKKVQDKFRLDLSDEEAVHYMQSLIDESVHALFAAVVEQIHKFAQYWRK

For the compound `Cc1cc(-c2cc(-c3cc(S(=O)(=O)NC[C@H]4CCOC4)ccc3C)cnc2N)on1` [Example 4.7, (R)-3-(6-Amino-5-(3-methylisoxazol-5-yl)pyridin-3-yl)-4-methyl-N-((tetra hydrofuran-3-yl)methyl)benzene-sulfonamide hydrochloride], the results for the IC50 at Vps34, on PI 4-kinase beta and on mTOR were above 10 µM, 1.7 µM and 7.7 µM, respectively.

For the compound `Cc1noc(-c2cc(-c3cc(S(=O)(=O)NCCC4(O)CCCC4)ccc3C)cnc2N)n1` [Example 37.11, 3-(6-Amino-5-(3-methyl-1,2,4-oxadiazol-5-yl)pyridin-3-yl)-N-(2-(1-hydroxycyclopentyl)ethyl)-4-methylbenzenesulfonamide], the IC50 at Vps34 is above 10 µM; on PI 4-kinase beta, 8.1 µM; on mTOR it was above 10 µM.

In the case of `Cc1cc(-c2cc(-c3cc(S(=O)(=O)NO[C@H]4C[C@H](O)C4)ccc3C)cnc2N)on1` [Example 95, trans-3-(6-amino-5-(3-methylisoxazol-5-yl)pyridin-3-yl)-N-((1r,3r)-3-hydroxycyclobutoxy)-4-methylbenzenesulfonamide], the figures for the IC50 on Vps34, at PI 4-kinase beta and on mTOR were above 10 µM, 0.86 µM and above 10 µM, respectively.

On to `Cc1ccc(S(=O)(=O)N[C@H]2CC[C@H](O)CC2)cc1-c1cnc(N)c(-c2nc(C(F)F)no2)c1` [Example 70, 3-(6-Amino-5-(3-(difluoromethyl)-1,2,4-oxadiazol-5-yl)pyridin-3-yl)-N-((1r,4r)-4-hydroxycyclohexyl)-4-methylbenzenesulfonamide hydrochloride], for which the results for the IC50 on Vps34, on PI 4-kinase beta and at mTOR were above 10 µM, 8.2 µM and above 10 µM, respectively.

On to `Cc1ccc(S(=O)(=O)NCC(C)(C)O)cc1-c1cnc(N)c(-c2nc(C3CC3)no2)c1` [Example 80, 3-(6-Amino-5-(3-cyclopropyl-1,2,4-oxadiazol-5-yl)pyridin-3-yl)-N-(2-hydroxy-2-methylpropyl)-4-methylbenzenesulfonamide hydrochloride], for which the IC50 on Vps34 is above 10 µM; at PI 4-kinase beta it was 3.55 µM; at mTOR, above 10 µM.

In the case of `Cc1ncc(-c2cc(-c3cc(S(=O)(=O)NCCC(C)(C)O)ccc3C)cnc2N)s1` [Example 4, 3-(6-Amino-5-(2-methylthiazol-5-yl)pyridin-3-yl)-N-(3-hydroxy-3-methylbutyl)-4-methylbenzenesulfonamide], the half-maximal inhibitory concentration (IC50) was 1.44 µM on PI 4-kinase beta and 2.63 µM on mTOR.

For `Cc1noc(-c2cc(-c3cc(S(=O)(=O)NCC4CCCO4)ccc3C)cnc2N)n1` (stereo not drawn) [Example 57, 3-(6-Amino-5-(3-methyl-1,2,4-oxadiazol-5-yl)pyridin-3-yl)-4-methyl-N-((tetrahydrofuran-2-yl)methyl)benzenesulfonamide], the IC50 is above 10 µM on PI 4-kinase beta and 2.4 µM at mTOR.

Regarding `Cc1noc(-c2cc(-c3cc(S(=O)(=O)NC4CC(O)C4)ccc3C)cnc2N)n1` (mixture of isomers) [Example 5.5, Diastereomers of 3-(6-Amino-5-(3-methyl-1,2,4-oxadiazol-5-yl)pyridin-3-yl)-N-(3-hydroxycyclobutyl)-4-methylbenzene sulfonamide hydrochloride], the concentration for half-maximal inhibition (IC50) at Vps34 and on mTOR was above 10 µM each time.

On to `COC1(C)CN(S(=O)(=O)c2ccc(C)c(-c3cnc(N)c(-c4nc(C)no4)c3)c2)C1` [Example 37.2, 5-(5-((3-Methoxy-3-methylazetidin-1-yl)sulfonyl)-2-methylphenyl)-3-(3-methyl-1,2,4-oxadiazol-5-yl)pyridin-2-amine], for which the IC50 on PI 4-kinase beta and at mTOR was above 10 µM throughout.

For the compound `Cc1ccc(S(=O)(=O)NCC(C)(C)O)cc1-c1cnc(N)c(-c2cnoc2C)c1` [Example 62, 3-(6-Amino-5-(5-methylisoxazol-4-yl)pyridin-3-yl)-N-(2-hydroxy-2-methylpropyl)-4-methylbenzenesulfonamide], the half-inhibitory concentration (IC50) on PI 4-kinase beta is 6.6 µM; at mTOR, above 10 µM.

Take `Cc1cc(-c2cc(-c3cc(S(=O)(=O)NCCC(C)(C)O)ccc3C)cnc2N)ccn1` [Example 16, 3-(2-Amino-2′-methyl-[3,4′]bipyridinyl-5-yl)-N-(3-hydroxy-3-methyl-butyl)-4-methyl-benzenesulfonamide]: the IC50 at Vps34 and at mTOR was above 9.1 µM each time.

With `Cc1noc(-c2cc(-c3cc(S(=O)(=O)N[C@H]4C[C@@H](O)C4)ccc3C)cnc2N)n1` [Example 5.5a, 3-(6-Amino-5-(3-methyl-1,2,4-oxadiazol-5-yl)pyridin-3-yl)-N-((1s,3s)-3-hydroxycyclobutyl)-4-methylbenzenesulfonamide], the IC50 on Vps34 and on mTOR was above 10 µM each time.

Turning to `Cc1ccc(S(=O)(=O)NCC(C)(C)O)cc1-c1cnc(N)c(-c2nc(C(F)F)no2)c1` [Example 71, 3-(6-Amino-5-(3-(difluoromethyl)-1,2,4-oxadiazol-5-yl)pyridin-3-yl)-N-(2-hydroxy-2-methylpropyl)-4-methylbenzenesulfonamide hydrochloride], the half-inhibitory concentration (IC50) was 10 µM at PI 4-kinase beta and above 10 µM at mTOR.

`Cc1ncc(-c2cc(-c3cc(S(=O)(=O)N[C@H]4CC[C@H](O)CC4)ccc3C)cnc2N)o1` [Example 98, 3-(6-amino-5-(2-methyloxazol-5-yl)pyridin-3-yl)-N-((1r,4r)-4-hydroxycyclohexyl)-4-methylbenzenesulfonamide hydrochloride]: the half-inhibitory concentration (IC50) on PI 4-kinase beta was found to be 0.83 µM; at mTOR it was 7.9 µM.

`Cc1ncc(-c2cc(-c3cc(S(=O)(=O)NCC(C)(C)O)ccc3C)cnc2N)s1` [Example 15, 3-[6-Amino-5-(2-methyl-thiazol-5-yl)-pyridin-3-yl]-N-(2-hydroxy-2-methyl-propyl)-4-methyl-benzenesulfonamide]: the concentration for half-maximal inhibition (IC50) on Vps34 came out at 1.62 µM; at mTOR it was 7.9 µM.

Take `CCc1noc(-c2cc(-c3cc(S(=O)(=O)NCC(C)(C)O)ccc3C)cnc2N)n1` [Example 5.3, 3-(6-Amino-5-(3-ethyl-1,2,4-oxadiazol-5-yl)pyridin-3-yl)-N-(2-hydroxy-2-methylpropyl)-4-methylbenzenesulfon-amide hydrochloride]: the half-maximal inhibitory concentration (IC50) at Vps34 and at mTOR was above 10 µM throughout.

On to `Cc1cc(-c2cc(-c3cc(S(=O)(=O)NCCO)ccc3C)cnc2N)on1` [Example 73, 3-(6-Amino-5-(3-methylisoxazol-5-yl)pyridin-3-yl)-N-(2-hydroxyethyl)-4-methylbenzenesulfonamide], for which the IC50 at Vps34 and at mTOR was above 10 µM each time.

For the compound `Cc1cc(-c2cc(-c3cc(S(=O)(=O)NCC4(CO)CCCCC4)ccc3C)cnc2N)on1` [Example 37.3, 3-(6-Amino-5-(3-methylisoxazol-5-yl)pyridin-3-yl)-N-((1-(hydroxymethyl)cyclohexyl)methyl)-4-methylbenzenesulfonamide], the IC50 was above 10 µM on Vps34 and 3 µM at mTOR.

Turning to `Cc1ccc(S(=O)(=O)NCCC(C)(C)O)cc1-c1cnc(N)c(-c2nc(CC(F)(F)F)no2)c1` [Example 79, 3-(6-Amino-5-(3-(2,2,2-trifluoroethyl)-1,2,4-oxadiazol-5-yl)pyridin-3-yl)-N-(3-hydroxy-3-methylbutyl)-4-methylbenzenesulfonamide], the IC50 was above 10 µM on Vps34 and 2.8 µM at PI 4-kinase beta.

Take `Cc1noc(-c2cc(-c3cc(S(=O)(=O)NO[C@H]4C[C@H](O)C4)ccc3C)cnc2N)n1` [Example 55, trans-3-(6-Amino-5-(3-methyl-1,2,4-oxadiazol-5-yl)pyridin-3-yl)-N-(3-hydroxycyclobutoxy)-4-methylbenzenesulfonamide]: the IC50 on Vps34 was above 10 µM; at PI 4-kinase beta, 4.7 µM.

As to `Cc1ccc(S(=O)(=O)NCCC(C)(C)O)cc1-c1cnc(N)c(-c2cnn(CC(F)(F)F)c2)c1` [Example 3, 3-(6-Amino-5-(1-(2,2,2-trifluoroethyl)-1H-pyrazol-4-yl)pyridin-3-yl)-N-(3-hydroxy-3-methylbutyl)-4-methylbenzenesulfonamide], the half-maximal inhibitory concentration (IC50) on Vps34 was above 9.1 µM; on PI 4-kinase beta, 1.08 µM.

With `Cc1noc(-c2cc(-c3cc(S(=O)(=O)NCCC4(O)CCCCC4)ccc3C)cnc2N)n1` [Example 37.31, 3-(6-Amino-5-(3-methyl-1,2,4-oxadiazol-5-yl)pyridin-3-yl)-N-(2-(1-hydroxycyclohexyl)ethyl)-4-methylbenzenesulfonamide], the values for the 50% inhibitory concentration (IC50) at Vps34 and at PI 4-kinase beta were above 10 µM and 6.2 µM, respectively.

For `Cc1noc(-c2cc(-c3cc(S(=O)(=O)NC4CC(F)(F)C4)ccc3C)cnc2N)n1` [Example 37.17, 3-(6-Amino-5-(3-methyl-1,2,4-oxadiazol-5-yl)pyridin-3-yl)-N-(3,3-difluorocyclobutyl)-4-methylbenzenesulfonamide], the 50% inhibitory concentration (IC50) at Vps34 is above 10 µM; on PI 4-kinase beta, 8.6 µM.

For `Cc1ccc(S(=O)(=O)N[C@H]2CC[C@H](O)CC2)cc1-c1cnc(N)c(-c2cc(C(C)(C)C)no2)c1` [Example 35.2, trans-3-(6-Amino-5-(3-(tert-butyl)isoxazol-5-yl)pyridin-3-yl)-N-(−4-hydroxycyclohexyl)-4-methylbenzenesulfonamide hydrochloride], the IC50 at Vps34 is above 10 µM; at PI 4-kinase beta it was 0.63 µM.

Turning to `Cc1cc(-c2cc(-c3cc(S(=O)(=O)NCC4(C)COC4)ccc3C)cnc2N)on1` [Example 17, 3-[6-Amino-5-(3-methyl-isoxazol-5-yl)-pyridin-3-yl]-4-methyl-N-(3-methyl-oxetan-3-ylmethyl)-benzenesulfonamide hydrochloride], the half-maximal inhibitory concentration (IC50) on Vps34 came to 8.1 µM; at mTOR, 8.5 µM.

As for `Cc1cccc(NS(=O)(=O)c2ccc(C)c(-c3cnc(N)c(-c4nc(C)no4)c3)c2)n1` [Example 72, 3-(6-Amino-5-(3-methyl-1,2,4-oxadiazol-5-yl)pyridin-3-yl)-4-methyl-N-(6-methylpyridin-2-yl)benzenesulfonamide], the IC50 on Vps34 and on PI 4-kinase beta was above 10 µM each time.
